Measurements reported in ChEMBL document CHEMBL4725254, “Irregularly Bridged Epipolythiodioxopiperazines and Related Analogues: Sources, Structures, and Biological Activities” (J Nat Prod, 2020).
In brackets after ≈: the same amount, converted by molar mass.

What was measured:
Jurkat = assay: Cytotoxicity against human Jurkat cells after 72 hrs by microtitre plate assay; type: functional, cell-based
[1] = test system: Human immunodeficiency virus; assay: Antiviral activity against HIV; type: functional, organism-based; conditions: Human immunodeficiency virus 1
HepG2 = assay: Growth inhibition of human HepG2 cells; type: functional
PC-3 = assay: Antitumor activity against human PC-3 cells; type: functional, cell-based
LNCaP = assay: Antitumor activity against human LNCaP cells; type: functional, cell-based
CWR22R = assay: Antitumor activity against human CWR22R cells; type: functional, cell-based; conditions: 22Rv1
[2] = Cytotoxicity against mouse NS-1 cells after 72 hrs by microtitre plate assay; type: functional, cell-based; conditions: NS1, 72 h
[3] = […] activity against Eupenicillium abidjanum IFO 8939; type: functional; conditions: Penicillium abidjanum

In the case of `COc1ccc([C@H]2SS[C@@]34C[C@]5(O)[C@H](Cl)C=C[C@@H](O)[C@@H]5ON3C(=O)[C@@H]2NC4=O)c(O)c1OC`, the IC50 (Jurkat) is reported as 5.1 µM.

Work on `CS[C@@]12C[C@H]3C(=O)CC[C@H](O)[C@H]3N1C(=O)[C@@]13C[C@@H]4[C@@H]([C@@H](O)[C@@H](C[C@@H]4O)S1)N3C2=O` yielded an IC50 [1] of 10 µM.

With `CS[C@@]12CC3=CC=C[C@H](O)[C@H]3N1C(=O)[C@@]13C[C@H]4C(=O)C[C@@H](SS1)[C@H](O)[C@H]4N3C2=O` the IC50 [1] was 16 µM.

`CSC1c2ccccc2O[C@]12C(=O)N1O[C@]3(CCC=CC3=O)[C@@H](O)C1(SC)C(=O)N2C` (stereo not given in full) showed a GI50 (HepG2) of 8 µM.

For `CS[C@@]12CC3=CC=C[C@H](O)[C@H]3N1C(=O)[C@@]13C[C@@H]4[C@@H]([C@@H](O)[C@@H](C[C@@H]4O)S1)N3C2=O`, the IC50 [1] was 10 µM.

In the case of `COc1ccc([C@H]2SS[C@@]34C[C@]5(O)[C@H](Cl)C=C[C@@H](O)[C@@H]5ON3C(=O)[C@@H]2N(C)C4=O)c(O)c1OC`, the IC50 (PC-3) is reported as 5.1 µM, the IC50 (LNCaP) is reported as 1.8 µM and the IC50 (CWR22R) is reported as 0.51 µM.

`COc1ccc2cc(NC(=O)[C@@]34C[C@]5(O)[C@@H](C=C[C@@H](O)[C@@H]5ON3)SS4)c(=O)oc2c1OC` gave an IC50 (Jurkat) of 1.3 µM and an IC50 [2] of 10 µM.

`CS[C@@]12CC3=CC=C[C@H](O)[C@H]3N1C(=O)[C@@]13C[C@H]4C(=O)C[C@@H](S1)[C@H](O)[C@H]4N3C2=O` gave an IC50 [1] of 10 µM.

With `COc1ccc([C@H]2SS[C@@]34C[C@]56O[C@H]5C=C[C@@H](O)[C@@H]6ON3C(=O)[C@@H]2N(C)C4=O)c(O)c1OC` the MIC [3] was 10 µg/mL (≈ 20.2 µM).

`CS[C@@]12CC3=CC=C[C@H](O)[C@H]3N1C(=O)[C@]13C[C@H]4C(=O)[C@H](C[C@H](O)[C@H]4N1C2=O)S3` gave an IC50 [1] of 10 µM.

Molecule `CS[C@@]12C[C@H]3C(=O)CC[C@H](O)[C@H]3N1C(=O)[C@@]13C[C@@H]4[C@@H]([C@@H](O)C=C[C@@H]4S1)N3C2=O` has an IC50 [1] of 10 µM.

In the case of `CS[C@@]12C[C@H]3C(=O)CC[C@H](O)[C@H]3N1C(=O)[C@@]13C[C@H]4C(=O)C[C@@H](S1)[C@H](O)[C@H]4N3C2=O` [EPICOCCIN O], the IC50 [1] is reported as 10 µM.
